Key:
Assay in all cases: relative viability (nuclei count vs DMSO), 5 days (fraction); higher = more cells survive
Axitinib + AZD7762 = compound: CNC(=O)c1ccccc1Sc1ccc2c(/C=C/c3ccccn3)n[nH]c2c1 [Axitinib] + NC(=O)Nc1cc(-c2cccc(F)c2)sc1C(=O)N[C@H]1CCCNC1 [AZD7762] (partner 0.2 µM)
Outline: (§1)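 Lung cancer cell lines were pin-tool dosed in 1536-well plates on the day after seeding, with either a lone drug or a fixed anchor-drug dose plus five library-drug doses (not always all listed) in √10 steps. Nuclei were counted on 4× images after 5 days. Relative viability is the ratio of treated-well to vehicle-well nuclei counts, with each value a median of duplicate plates.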

[1] = compound: CC1=CC=C(C=C1)C(=O)CN2C3=C(CCCC3)SC2=N [Pifithrin_alpha] + Cc1nc(NC(=O)N2CCC[C@H]2C(N)=O)sc1-c1ccnc(C(C)(C)C(F)(F)F)c1 [Alpelisib] (partner 2 µM)
Outline: as §1

[2] = compound: CC1=CC=C(C=C1)C(=O)CN2C3=C(CCCC3)SC2=N [Pifithrin_alpha] + CS(=O)(=O)CCNCc1ccc(-c2ccc3ncnc(Nc4ccc(OCc5cccc(F)c5)c(Cl)c4)c3c2)o1 [Lapatinib] (partner 2 µM)
Outline: as §1

[3] = compound: Nc1nc(Nc2ccc3c(c2)CC[C@@H](N2CCCC2)CC3)nn1-c1cc2c(nn1)-c1ccccc1CCC2 [Bemcentinib] + CC(=O)c1c(C)c2cnc(Nc3ccc(N4CCNCC4)cn3)nc2n(C2CCCC2)c1=O [Palbociclib] (partner 0.5 µM)
Outline: as §1

NCI-H650
relative viability (Axitinib + AZD7762; first compound 0.005 µM): 1.08 | relative viability (Axitinib + AZD7762; first compound 0.01581 µM): 0.978 | relative viability (Axitinib + AZD7762; first compound 0.05 µM): 1.08 | relative viability (Axitinib + AZD7762; first compound 0.1581 µM): 1.11 | relative viability (Axitinib + AZD7762; first compound 0.5 µM): 0.862 | relative viability ([1]; first compound 3.162 µM): 1.12 | relative viability ([1]; first compound 10 µM): 1.13 | relative viability ([1]; first compound 31.62 µM): 0.755 | relative viability ([1]; first compound 100 µM): 1.09 | relative viability ([2]; first compound 3.162 µM): 1.11 | relative viability ([2]; first compound 10 µM): 1.11 | relative viability ([2]; first compound 31.62 µM): 0.532 | relative viability ([2]; first compound 100 µM): 0.767 | relative viability ([3]; first compound 0.04 µM): 0.337 | relative viability ([3]; first compound 0.1265 µM): 0.298 | relative viability ([3]; first compound 0.4 µM): 0.338 | relative viability ([3]; first compound 1.265 µM): 0.333 | relative viability ([3]; first compound 4 µM): 0.298

Reference: the supplement of paper PMC10307832
